Results published in US10688103B2, “Methods for treating hypersomnia” (BALANCE THERAPEUTICS, INC., priority 2014, dated 2020).

Key:
[1] = system: patient diagnosed with primary hypersomnia; assay: Epworth Sleepiness Scale (ESS) in hypersomnia patients; type: in vivo, human
Text: In some embodiments, total scores in the ESS range from 0 to 24. A skilled artisan will recognize that in the ESS scores at the lower end (towards 0) of the scale indicate an improvement in a subject's hypersomnia. In some embodiments, scores of 10 and above indicate significant hypersomnia symptoms in a subject. In some embodiments, changes of 2-3 points in the ESS indicate clinically meaningful improvements in the subject's hypersomnia.
(§1) The patient was selected for PTZ treatments based on a clinical diagnosis of primary hypersomnia and the presence of an elevated level of an endogenous positive GABAA receptor allosteric modulator in the cerebrospinal fluid (CSF) of the subject relative to the CSF of a subject not having hypersomnia. The patient's sleepiness was scored according to the Epworth Sleepiness Scale (ESS), the Functional Outcomes of Sleep Questionnaire (FOSQ) Total Score, and the Multidimensional Fatigue Inventory (MFI). Additional clinical parameters recorded during the course of PTZ treatment included the Clinical Global Impression of Severity (CGI-S), the Clinical Global Impression of Change (CGI-C), the Beck Depression Inventory (BDI-II) Total Score and the patient's reported feelings of fogginess.
(§2) PTZ was orally administered to the patient twice daily at doses of 100 mg in liquid form in a TANG™ brand juice.
(§3) The patients were selected for PTZ treatments and evaluated as described in Example 2. PTZ was orally administered in liquid form in a TANG™ brand juice.
(§4) The patients were first evaluated while receiving flumazenil (Patient 1) or clarithromycin (Patient 2). […] A second evaluation of the two patients was performed at the end of the wash-out period. PTZ was then administered to Patient 1 for two weeks. During the first week, PTZ was administered to Patient 1 twice daily at doses of 100 mg, and during the second week PTZ was administered to Patient 1 at doses of 200 mg. PTZ was administered to Patient 2 for one week twice daily at doses of 100 mg. The patients were evaluated at the end of the first week (Patients 1 and 2) and at the end of the second week (Patient 1).

[2] = system: patient diagnosed with primary hypersomnia; assay: Functional Outcomes of Sleep Questionnaire (FOSQ) in hypersomnia patients; type: in vivo, human; parameters: key to FOSQ General Productivity Score / FOSQ Social Outcome Score / FOSQ Activity Level Score / FOSQ Vigilance Score / FOSQ Intimate Relationships and Sexual Activity Score: subscale score ~1-4; higher = improvement; key to Functional Outcomes of Sleep Questionnaire (FOSQ) Total Score: total score ~5-20; higher = improvement
Experimental: In some embodiments, the subject having hypersomnia is assessed using the Functional Outcomes of Sleep Questionnaire (FOSQ). The FOSQ can, e.g., be administered to the subject by asking the subject to rate the impact of a sleep disorder on a scale on activities within certain categories. In some embodiments, an FOSQ total score is determined. In some embodiments, the FOSQ total score is determined from one or more subscale scores (e.g., 1, 2, 3, 4, 5, 6, 7, 8, or more subscale scores). In some embodiments, the FOSQ subscale scores can include, e.g., a General Productivity Score, a Social Outcome Score, an Activity Level Score, a Vigilance Score, or an Intimate Relationship and Sexual Activity Score. A skilled artisan will recognize that higher FOSQ total or subscale scores indicate an improvement in the subject's hypersomnia. In some embodiments, FOSQ total scores can range from about 5 to 20. In some embodiments, FOSQ subscale scores can range from about 1 to 4.
as §1, §2, §3, §4

[3] = system: patient diagnosed with primary hypersomnia; assay: Multidimensional Fatigue Inventory (MFI) in hypersomnia patients; type: in vivo, human; parameters: key: MFI subscale score; lower scores indicate improvement
Experimental: In some embodiments, the subject having hypersomnia is assessed using the Multidimensional Fatigue Inventory (MFI). The MFI is typically a 20-item scale designed to evaluate five dimensions of fatigue. In some embodiments, a total MFI score is calculated. In some embodiments, the MFI can include one or more scales (e.g., 1, 2, 3, 4, 5, 6, 7, 8, or more scales). In some embodiments, the MFI scales can include, e.g., a General Fatigue Scale, a Physical Activity Scale, a Reduced Activity Scale, a Reduced Motivation Scale, or a Mental Fatigue Scale. Generally, in MFI lower scores indicate improvements in the subject's […].
as §1, §2, §3, §4

[4] = system: patient diagnosed with primary hypersomnia; assay: Clinical Global Impression of Severity (CGI-S) in hypersomnia patients; type: in vivo, human
Experimental: In some embodiments, the subject having hypersomnia is assessed using the Clinical Global Impression of Severity (CGI-S).
as §1, §2, §3, §4

[5] = system: patient diagnosed with primary hypersomnia; assay: Beck Depression Inventory (BDI-II) in hypersomnia patients; type: in vivo, human
Experimental: In some embodiments, the subject having hypersomnia is assessed using the Beck Depression Inventory (current version, published in 1996, is the BDI-II). In some embodiments, a BDI-II total score is determined. In some embodiments, a BDI-II total score of 0-13 indicates minimal depression; a score of 14-19 indicates mild depression; a score of 20-28 indicates moderate depression; and a score of 29-63 indicates severe depression.
as §1, §2, §3, §4

[6] = system: patient diagnosed with primary hypersomnia; assay: Clinical Global Impression of Change (CGI-C) in hypersomnia patients; type: in vivo, human; details: oral
Experimental: In some embodiments, the subject having hypersomnia is assessed using the Clinical Global Impression of Change (CGI-C).
as §1, §2, §3, §4

[7] = system: patient diagnosed with primary hypersomnia; assay: Self-reported fogginess score in hypersomnia patients; type: in vivo, human; details: oral, average of daily scores over one week
Experimental: In some embodiments, the subject having hypersomnia is assessed using a self-reported fogginess score. It is believed that the fogginess score can be used to evaluate a subject's clarity of thinking, which can reflect the subject's cognitive state. In some embodiments, the subject is asked how foggy the subject feels, e.g., since waking up in the morning or since midday. Scoring in a self-reported fogginess score can, e.g., be scored on a scale from 0 to 3.
as §1, §2, §3, §4

[8] = system: human patients diagnosed with primary hypersomnia; assay: Overall comparison of treatments of hypersomnia in human patients; type: in vivo; details: Patients 1 and 2 diagnosed with primary hypersomnia
Experimental: This example describes the treatment of hypersomnia by administering PTZ to two human patients having hypersomnia who were treated with flumazenil (Patient 1) or clarithromycin (Patient 2) prior to the administration of PTZ.
as §3, §4

[9] = Patient 2, before PTZ treatment, on clarithromycin
[10] = Patient 1, before PTZ treatment, on flumazenil
[11] = Patient 1 (patient of Example 2), after 1 week on PTZ 100 mg twice daily, oral
[12] = Patient 1, after 2 weeks on PTZ (200 mg twice daily in 2nd week), oral
[13] = Patient 2, after 1 week on PTZ 100 mg twice daily, oral
[14] = Patient of Example 2, after one week of PTZ treatment vs before treatment
[15] = Patient 1 (patient of Example 2), after 1 week on PTZ 100 mg twice daily
[16] = Patient 1, after 2 weeks on PTZ (200 mg twice daily in 2nd week)
[17] = Patient 2, after 1 week on PTZ 100 mg twice daily

CC[C@H]1OC(=O)[C@H](C)[C@@H](O[C@H]2C[C@@](C)(OC)[C@@H](O)[C@H](C)O2)[C@H](C)[C@@H](O[C@@H]2O[C@H](C)C[C@H](N(C)C)[C@H]2O)[C@](C)(OC)C[C@@H](C)C(=O)[C@H](C)[C@@H](O)[C@]1(C)O [Clarithromycin, clarithromycin]
Epworth Sleepiness Scale (ESS) Total Score [1, 9]: 8
FOSQ Activity Level Score [2, 9]: 2.3
FOSQ General Productivity Score [2, 9]: 3.4
FOSQ Intimate Relationships and Sexual Activity Score [2, 9]: 4.0
FOSQ Social Outcome Score [2, 9]: 3.0
FOSQ Vigilance Score [2, 9]: 2.1
Functional Outcomes of Sleep Questionnaire (FOSQ) Total Score [2, 9]: 15
Multidimensional Fatigue Inventory (MFI) General Fatigue Scale [3, 9]: 17
Multidimensional Fatigue Inventory (MFI) Mental Fatigue Scale [3, 9]: 9
Multidimensional Fatigue Inventory (MFI) Physical Fatigue Scale [3, 9]: 13
Multidimensional Fatigue Inventory (MFI) Reduced Activity Scale [3, 9]: 9
Multidimensional Fatigue Inventory (MFI) Reduced Motivation Scale [3, 9]: 13
Clinical Global Impression of Severity (CGI-S) [4, 9]: 4
Beck Depression Inventory (BDI-II) Total Score [5, 9]: 0

CCOC(=O)c1ncn2c1CN(C)C(=O)c1cc(F)ccc1-2 [Flumazenil, flumazenil]
Epworth Sleepiness Scale (ESS) Total Score [1, 10]: 12
FOSQ Activity Level Score [2, 10]: 1.4
FOSQ General Productivity Score [2, 10]: 2.4
FOSQ Intimate Relationships and Sexual Activity Score [2, 10]: 1.0
FOSQ Social Outcome Score [2, 10]: 3.0
FOSQ Vigilance Score [2, 10]: 2.3
Functional Outcomes of Sleep Questionnaire (FOSQ) Total Score [2, 10]: 10
Multidimensional Fatigue Inventory (MFI) General Fatigue Scale [3, 10]: 19
Multidimensional Fatigue Inventory (MFI) Mental Fatigue Scale [3, 10]: 16
Multidimensional Fatigue Inventory (MFI) Physical Fatigue Scale [3, 10]: 19
Multidimensional Fatigue Inventory (MFI) Reduced Activity Scale [3, 10]: 19
Multidimensional Fatigue Inventory (MFI) Reduced Motivation Scale [3, 10]: 12
Clinical Global Impression of Severity (CGI-S) [4, 10]: 6
Beck Depression Inventory (BDI-II) Total Score [5, 10]: 16

C1CCc2nnnn2CC1 [PTZ, pentylenetetrazol]
Epworth Sleepiness Scale (ESS) Total Score [1, 11]: 13
Epworth Sleepiness Scale (ESS) Total Score [1, 12]: 9
Epworth Sleepiness Scale (ESS) Total Score [1, 13]: 8
ESS Total Score decrease [1, 14]: 6 points
FOSQ Activity Level Score [2, 11]: 2.9
FOSQ General Productivity Score [2, 11]: 3.3
FOSQ Intimate Relationships and Sexual Activity Score [2, 11]: 2.0
FOSQ Social Outcome Score [2, 11]: 3.0
FOSQ Vigilance Score [2, 11]: 3.1
Functional Outcomes of Sleep Questionnaire (FOSQ) Total Score [2, 11]: 14.5
FOSQ Activity Level Score [2, 12]: 2.9
FOSQ General Productivity Score [2, 12]: 3.7
FOSQ Intimate Relationships and Sexual Activity Score [2, 12]: 3.0
FOSQ Social Outcome Score [2, 12]: 3.5
FOSQ Vigilance Score [2, 12]: 3.7
Functional Outcomes of Sleep Questionnaire (FOSQ) Total Score [2, 12]: 17.0
FOSQ Activity Level Score [2, 13]: 3.4
FOSQ General Productivity Score [2, 13]: 3.4
FOSQ Intimate Relationships and Sexual Activity Score [2, 13]: 4.0
FOSQ Social Outcome Score [2, 13]: 3.0
FOSQ Vigilance Score [2, 13]: 2.9
Functional Outcomes of Sleep Questionnaire (FOSQ) Total Score [2, 13]: 16.5
FOSQ Total Score increase [2, 14]: 8 points
Multidimensional Fatigue Inventory (MFI) General Fatigue Scale [3, 11]: 18
Multidimensional Fatigue Inventory (MFI) Mental Fatigue Scale [3, 11]: 7
Multidimensional Fatigue Inventory (MFI) Physical Fatigue Scale [3, 11]: 14
Multidimensional Fatigue Inventory (MFI) Reduced Activity Scale [3, 11]: 16
Multidimensional Fatigue Inventory (MFI) Reduced Motivation Scale [3, 11]: 9
Multidimensional Fatigue Inventory (MFI) General Fatigue Scale [3, 12]: 15
Multidimensional Fatigue Inventory (MFI) Mental Fatigue Scale [3, 12]: 8
Multidimensional Fatigue Inventory (MFI) Physical Fatigue Scale [3, 12]: 14
Multidimensional Fatigue Inventory (MFI) Reduced Activity Scale [3, 12]: 16
Multidimensional Fatigue Inventory (MFI) Reduced Motivation Scale [3, 12]: 11
Multidimensional Fatigue Inventory (MFI) General Fatigue Scale [3, 13]: 13
Multidimensional Fatigue Inventory (MFI) Mental Fatigue Scale [3, 13]: 6
Multidimensional Fatigue Inventory (MFI) Physical Fatigue Scale [3, 13]: 7
Multidimensional Fatigue Inventory (MFI) Reduced Activity Scale [3, 13]: 6
Multidimensional Fatigue Inventory (MFI) Reduced Motivation Scale [3, 13]: 7
Clinical Global Impression of Severity (CGI-S) [4, 11]: 5
Clinical Global Impression of Severity (CGI-S) [4, 12]: 4
Clinical Global Impression of Severity (CGI-S) [4, 13]: 3
Clinical Global Impression of Change (CGI-C) [6, 15]: 3
Clinical Global Impression of Change (CGI-C) [6, 16]: 2
Clinical Global Impression of Change (CGI-C) [6, 17]: 2
Beck Depression Inventory (BDI-II) Total Score [5, 11]: 8
Beck Depression Inventory (BDI-II) Total Score [5, 12]: 5
Beck Depression Inventory (BDI-II) Total Score [5, 13]: 0
How foggy have you felt since midday? [7, 15]: 0.1
How foggy have you felt since waking up this morning? [7, 15]: 1.1
How foggy have you felt since midday? [7, 16]: 0.7
How foggy have you felt since waking up this morning? [7, 16]: 1.0
How foggy have you felt since midday? [7, 17]: 1.2
How foggy have you felt since waking up this morning? [7, 17]: 2.1
Efficacy in the treatment of hypersomnia relative to flumazenil and clarithromycin [8]: superior efficacy
